Here are results for nine compounds from publication PMC3463507 (ChemMedChem, 2012).

Molecules are shown by their SMILES. Where two headings read alike, the source gives them in different places.

The target of experiment [1] is T1, BaDHPS (Bacillus anthracis, UniProt Q81VW8). Format: binding. Particulars: 25 °C, pH 7.6.
For experiment [2], the target named is T1, BaDHPS. Kind of experiment: biochemical. Format: binding. The settings on record: for SPR kd: 25 °C; for kon: read-out: SPR ka.
In experiment [3] the target is T1, BaDHPS. Kind of experiment: biochemical. Format: biochemical. The settings on record: for inhibition at 250 µM: read-out: Enzyme Inhibition Activity% @250μM.

T1 sequence (Q81VW8 1-280): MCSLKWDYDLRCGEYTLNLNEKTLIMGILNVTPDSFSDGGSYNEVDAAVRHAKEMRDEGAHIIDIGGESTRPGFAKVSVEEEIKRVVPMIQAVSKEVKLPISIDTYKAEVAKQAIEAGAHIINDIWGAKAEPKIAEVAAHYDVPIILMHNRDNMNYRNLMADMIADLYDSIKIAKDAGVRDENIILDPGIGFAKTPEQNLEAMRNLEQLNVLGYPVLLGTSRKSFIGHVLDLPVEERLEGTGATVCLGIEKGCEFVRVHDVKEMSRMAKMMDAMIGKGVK

As for `CC(CC(=O)O)c1n[nH]c2nc(N)[nH]c(=O)c2c1=O` (stereo not shown) [Compound 24, 3-(7-Amino-4,5-dioxo-1,4,5,6-tetrahydropyrimido[4,5-c]pyridazin-3-yl)butanoic acid], at BaDHPS [1], the “ITC N (stoichiometry of the interaction)” value is recorded as 0.8, the “ITC ΔG” value was -8.6 kcal/mol, the “ITC ΔH” value is -7.5 kcal/mol and the “ITC −TΔS” value was -1.1 kcal/mol. On BaDHPS [2], the SPR kd was 3.39(1) × 10^−1 s^−1 and the kon amounted to 643000 M⁻¹ s⁻¹. In addition, on BaDHPS [3], half-maximal inhibition (IC50) was put at 57000 nM and the inhibition at 250 µM came out at 75.8%.

For the compound `CC(C(=O)O)c1n[nH]c2nc(N)[nH]c(=O)c2c1=O` (stereo not shown) [Compound 19, 2-(7-Amino-4,5-dioxo-1,4,5,6-tetrahydropyrimido[4,5-c]pyridazin-3-yl)propanoic acid], at BaDHPS [1], the “ITC N (stoichiometry of the interaction)” value is listed as 0.9, the “ITC ΔG” value is -9.65 kcal/mol, the “ITC ΔH” value was -8.7 kcal/mol and the “ITC −TΔS” value is -0.95 kcal/mol. Further, at BaDHPS [2], the SPR kd was 4.39(3) × 10^−2 s^−1 and the kon worked out at 366000 M⁻¹ s⁻¹. Also, binding at BaDHPS [2] (SPR KD) was characterised by a dissociation constant (Kd) of 120 nM. At BaDHPS [2] (SPR KD(eq)), the affinity, expressed as Kd, was 123 nM. For the same compound, on BaDHPS [3], the inhibition at 250 µM is 95.3%.

For the compound `Cn1nc(C(=O)O)c(=O)c2c(=O)[nH]c(N)nc21` [Compound 5, 7-Amino-1-methyl-4,5-dioxo-1,4,5,6-tetrahydropyrimido[4,5-c]pyridazine-3-carboxylic acid], on BaDHPS [3], the concentration for half-maximal inhibition (IC50) result was “no detectable IC50 value” and the inhibition at 250 µM was determined as 32.4%.

`Cn1nc(CC(=O)O)c(=O)c2c(=O)[nH]c(N)nc21` [Compound 16, 2-(7-Amino-1-methyl-4,5-dioxo-1,4,5,6-tetrahydropyrimido[4,5-c]pyridazin-3-yl)acetic acid]: on BaDHPS [2], the SPR kd was 6.94(6) × 10^−2 s^−1 and the kon was 342000 M⁻¹ s⁻¹. This compound also had a Kd on BaDHPS [2] (SPR KD) of 203 nM. On BaDHPS [2] (SPR KD(eq)), this compound displayed a Kd of 190 nM. In addition, at BaDHPS [3], it took 32000 nM to reach half-maximal inhibition (IC50) and the inhibition at 250 µM turned out to be 96%.

Regarding `CC(CC(=O)O)c1nn(C)c2nc(N)[nH]c(=O)c2c1=O` (stereo not shown) [Compound 17, 3-(7-Amino-1-methyl-4,5-dioxo-1,4,5,6-tetrahydropyrimido[4,5-c]pyridazin-3-yl)butanoic acid], at BaDHPS [3], the IC50 was found to be 145000 nM and the inhibition at 250 µM came to 52.5%.

For `Cn1nc(CCC(=O)O)c(=O)c2c(=O)[nH]c(N)nc21` [Compound 18, 3-(7-Amino-1-methyl-4,5-dioxo-1,4,5,6-tetrahydropyrimido[4,5-c]pyridazin-3-yl)propanoic acid], at BaDHPS [3], the inhibition at 250 µM came to 65%.

Turning to `Nc1nc2[nH]nc(CC(=O)O)c(=O)c2c(=O)[nH]1` [Compound 23, 2-(7-Amino-4,5-dioxo-1,4,5,6-tetrahydropyrimido[4,5-c]pyridazin-3-yl)acetic acid], on BaDHPS [2], the SPR kd was 4.35(3) × 10^−2 s^−1 and the kon turned out to be 419000 M⁻¹ s⁻¹. The Kd on BaDHPS [2] (SPR KD) is 104 nM. The Kd at BaDHPS [2] (SPR KD(eq)) is 110 nM. Besides, on BaDHPS [3], the midpoint of inhibition, the IC50, lay at 18000 nM and the inhibition at 250 µM was determined as 91%.

On to `COC(=O)CCc1n[nH]c2nc(N)[nH]c(=O)c2c1=O` [Compound 22, Methyl 3-(7-amino-4,5-dioxo-1,4,5,6-tetrahydropyrimido[4,5-c]pyridazin-3-yl)propanoate], for which, on BaDHPS [3], the IC50 was found to be 260000 nM and the inhibition at 250 µM turned out to be 33%.

On to `Nc1nc2[nH]nc(CCC(=O)O)c(=O)c2c(=O)[nH]1` [Compound 25, 3-(7-Amino-4,5-dioxo-1,4,5,6-tetrahydropyrimido[4,5-c]pyridazin-3-yl)propanoic acid], for which, on BaDHPS [1], the “ITC N (stoichiometry of the interaction)” value is 0.7, the “ITC ΔG” value is -8.94 kcal/mol, the “ITC ΔH” value was -10.4 kcal/mol and the “ITC −TΔS” value worked out at 1.46 kcal/mol. Also, at BaDHPS [2], the SPR kd is recorded as 3.14(1) × 10^−1 s^−1 and the kon is 442000 M⁻¹ s⁻¹. For the same compound, the Kd on BaDHPS [2] (read-out: SPR KD) stood at 710 nM. On BaDHPS [2] (read-out: SPR KD(eq)), the Kd was 713 nM. In addition, on BaDHPS [3], the IC50 is 36000 nM and the inhibition at 250 µM stood at 91.8%.
